From a melting point compilation (Tetko et al.; mined from patent text by program, amines drawn as free bases though some values may be those of a salt) come the findings set out here.

One may read the melting point as the temperature, or range, at which the solid turns liquid.

In the case of `COC(=O)C1=C(C)NC(c2cnc(Cl)s2)=NC1c1ccc(F)cc1` (stereo unspecified), the melting point was in the range of 175 to 178 °C.

Molecule `CSc1cc(C)c(C(=O)N=C(N)N)cc1S(C)(=O)=O` yielded a melting point of 220 to 222 °C.

Take `c1ccc(-c2ccc(C34CCCN(CC3)C4)nn2)cc1` (stereo unspecified): the melting point lay within 133 to 134 °C.

`COc1ccc(-c2c(Cl)c(CN3C(=O)CCC3=O)nc3sc4c(c23)CCN(Cc2ccccc2)C4)cc1`: the melting point was 241 to 243 °C.

`Cc1ccc2nc(-c3ccc(C#N)cc3)c(CNC(=O)CC(C)C)n2c1` gave a melting point of 231 to 233 °C.

The molecule `O=[N+]([O-])c1ccc(S(=O)(=O)n2c3cc(O)c(O)cc3c3ccc(O)c(O)c32)cc1` yielded a melting point of 233 to 234 °C.

Molecule `COc1cc(C(=O)/C=C/c2c(-c3ccc(F)cc3)nc3sccn23)cc(OC)c1OC` had a melting point of 222 to 225 °C.

`CC1Oc2ccc(Cn3ccnc3)cc2NC1=O` (stereo unspecified) displayed a melting point of 219 to 222 °C.

On to `CN1CCN(Cc2ccccc2C(F)(F)F)C(C2=NCCN2)C1` (stereo unspecified), for which the melting point fell in the range of 163 to 165 °C.

Consider `CC(=O)OCC(=O)c1cc2c(s1)SCCc1cc(=O)n(-c3ccc(Cl)cc3)nc1-2`, for which the melting point lay within 172 to 174 °C.

The molecule `CC(=O)OCc1ccc(-c2[nH]c(-c3cccc4ccccc34)nc2C(=O)OC(C)(C)C)cc1` showed a melting point of 162 to 164 °C.

Molecule `Cn1c(=S)n(C)c(=O)n(-c2ccc(F)cc2F)c1=O` gave a melting point of 156 to 159 °C.

In turn, `CCc1cccc(CC(=O)O)c1OCCn1cc(C(=O)NCc2ccc(C(F)(F)F)cc2)c(OC(C)C)n1` yielded a melting point of 110 to 111 °C.

On to `CC(C)(O)C1CCN(Cc2ccc(C#CC(=O)Nc3ccc(-c4ccc(Cl)cc4)cc3)cc2)CC1`, for which the melting point is 194 to 195 °C.

Consider `CC(=O)c1ccc(SCCOc2ccc3ccccc3c2)cc1`, for which the melting point was 151 to 152 °C.

Take `CC(C)(C)C(NC(=O)c1ccc(-c2ccco2)cc1)Nc1c(Nc2cccnc2)c(=O)c1=O` (stereo unspecified): the melting point is 230 to 232 °C.

`CCCCCCCCCCCCc1nnc(C(C(=O)Nc2c(C(C)C)cccc2C(C)C)c2ccccc2)o1` (stereo unspecified) showed a melting point of 82 to 84 °C.

`CN(CC#Cc1ccccc1)[C@H]1CC[C@H](c2ccc3[nH]c(=O)oc3c2)CC1` yielded a melting point of 249 to 252 °C.

`Cc1ccc(N2CCN(c3ccc4c(ncc5c4c(=O)c(C(=O)O)cn5C)c3F)CC2)cc1F` showed a melting point of over 300 °C.

In turn, `NC(=O)c1cc(C(O)CNCCCn2nnc3ccccc32)ccc1O` (stereo unspecified) showed a melting point of 154 to 155 °C.

Turning to `CC1=C(c2ccccc2)C(=O)c2ccccc2C1=O`, the melting point lay within 235 to 236 °C.

The molecule `CS(=O)(=O)c1ccc(-c2cc3cccccc-3c2-c2ccccc2)cc1` displayed a melting point of 139 to 140 °C.

`CC(=O)N1CCc2cc(S(=O)(=O)n3c(CCCC(=O)O)cc4nc(Cl)ccc43)ccc21` had a melting point of 226 °C.

`N#CCc1c[nH]c2ccc(NC(N)=O)cc12` came in with a melting point of 200 to 204 °C.

As for `O=c1[nH]c2cccc(O)c2n1CCN1CCN(c2cccc(C(F)(F)F)c2)CC1`, the melting point is 246 °C.

Regarding `C(=Cc1ccccc1)CN1CCN(C(c2ccccc2)c2ccccc2)CC1`, the melting point turned out to be 110 °C.

Consider `C=CCOc1ccc(-c2ccc(Cl)nn2)c(OCC(O)CNC(C)(C)C)c1` (stereo unspecified), for which the melting point is 93 to 94 °C.

With `COc1cc(Nc2nc3c(s2)CCCC3c2ccccc2)ccc1-c1nc(C)no1` (stereo unspecified), the melting point was 228 to 231 °C.

The molecule `CN(C1CCNCC1)S(=O)(=O)c1ccc(Nc2nccc(-c3ccc(F)cc3)n2)cc1` returned a melting point of 116 °C.

In the case of `CC1CCc2ccc(O)cc2O1` (stereo unspecified), the melting point lay in the range of 94 to 95 °C.

Molecule `CC1(C)CC2(CC(C)(C)c3ccc(O)cc32)c2cc(O)ccc21` had a melting point of 215 to 217 °C.

Take `CCN(CC1CCN(C(=O)NC)CC1)C(C)Cc1ccc(OC)cc1` (stereo unspecified): the melting point was in the range of 97 to 98 °C.

In the case of `COc1cccc(C2OC(=O)CC2C(=O)O)c1OC` (stereo unspecified), the melting point was 129 to 130 °C.

`O=C(O)c1ccc(-c2ccc3cc(OCc4ccc(F)cc4)c(C45CC6CC(CC(C6)C4)C5)cc3c2)cc1O` yielded a melting point of 240 to 241 °C.

On to `CCCc1nc2c(N)nc3cc(O)ccc3c2n1CC(C)C`, for which the melting point is over 265 °C.

`Cc1ccc(C(=S)c2c(C)cc(Cc3ccc(N)cc3F)n2C)cc1` came in with a melting point of 199 to 200 °C.

`COc1cc2c(c3c1c(=O)c1cc4ccccc4cc1n3C)C=CC(C)(C)O2` had a melting point of 188 °C.

For `CCCCN(CCCC)CCCOc1ccc(C(=O)c2c(C)oc3ccc([N+](=O)[O-])cc23)cc1`, the melting point turned out to be 63 °C.

`COc1ccc(C(=Cc2c(Cl)cncc2Cl)c2ccccc2)cc1OC1CCCC1`: the melting point fell in the range of 138 to 140 °C.

In turn, `NC1=C(NC=O)C(=O)N2CCN=C2N1Cc1ccccc1` showed a melting point of 248 to 250 °C.

Turning to `Cc1cc(NNC(=O)OC(C)(C)C)c([N+](=O)[O-])c(N(Cc2ccccc2)Cc2ccccc2)n1`, the melting point is 60 to 67 °C.

Molecule `CC(C)(C)c1ccc(S(=O)(=O)N2c3ccccc3C[C@H]2C(=O)Cl)cc1` returned a melting point of 148 °C.

For `c1ccc(Nc2csc(-c3cn[nH]c3)n2)nc1`, the melting point fell in the range of 209 to 210 °C.

`CC(=O)Oc1ccc2cccc(OCC(=O)c3ccccc3)c2n1` showed a melting point of 141 to 142 °C.

As for `Clc1ccc([Si](Cl)(Cl)Cl)cc1`, the melting point is 60 to 61 °C.

As to `CCCCCCS(=O)(=O)c1nn2c(=O)c(C(C)=O)cnc2s1`, the melting point lay within 124 to 125 °C.

In turn, `COCC1(C)CCCOc2cc(C#Cc3ccc(C(=O)O)cc3)ccc21` (stereo unspecified) displayed a melting point of 112 °C.

In turn, `Cn1c(CC(=O)O)cc(Cl)c1C(=O)c1ccc(S(C)=O)cc1` (stereo unspecified) yielded a melting point of 222 to 223 °C.

For `O=S1(=O)N=CN(C2CC2)c2ccc(F)c(F)c21`, the melting point lay within 205 to 206 °C.

As for `CCOCc1nc2c(N)nc3ccccc3c2n1CCCNS(C)(=O)=O`, the melting point fell in the range of 208 to 210 °C.

The molecule `CCC(O)(c1ccc(-c2ccccc2)cc1)C1CC=CC1` (stereo unspecified) yielded a melting point of 82 to 84 °C.

In the case of `Cc1nc2c(O[Si](C)(C)C(C)(C)C(C)C)c(CC[C@@H](O)c3ccccc3)c(C(=O)N(C)C)cn2c1C`, the melting point is 56 to 58 °C.

In the case of `CCOP(=O)(/C=C/c1cn(-c2ccccc2)nc1OCc1ccc(OCc2nc(-c3cccc(C(=O)O)c3)oc2C)c(OC)c1)OCC`, the melting point lay in the range of 148 to 149 °C.

In turn, `O=C1CCOc2ccc(/C=C/c3nc4cc(F)ccc4s3)cc21` displayed a melting point of 197 to 199 °C.

Molecule `COc1cc(Cc2cnc(N)nc2N)cc(-c2ccc(C=O)cc2)c1OC` displayed a melting point of 99 °C.

On to `O=C(N[C@H](Cc1cccc(OC(F)(F)C(F)F)c1)[C@@H](O)c1csc(-c2ccccc2)n1)c1ccc(F)c2ccccc12` (racemic), for which the melting point lay within 148 to 150 °C.

Molecule `Cc1ccc(-c2[nH]c(-c3c(C)cc(C)cc3C)nc2-c2ccncc2)cc1` returned a melting point of 277 to 279 °C.

In the case of `COc1ccc(NC(=O)c2cnc3ccccc3c2O)cc1`, the melting point is over 260 °C.

`O=C(O)c1cccc(OCc2ccc(Cl)cc2Cl)c1OCc1ccccc1`: the melting point was in the range of 151 to 153 °C.

`CC1(C)C(C=C(Cl)Cl)C1C(=O)O` (stereo unspecified) had a melting point of 86 °C.

In turn, `CN1CCN(C2=Nc3ccccc3N(C)c3sc4ccccc4c32)CC1` displayed a melting point of 88 to 90 °C.
